Source: PMC4552634, “A New Set of Chemical Starting Points with Plasmodium falciparum Transmission-Blocking Potential for Antimalarial Drug Discovery” (PLoS ONE, 2015)
Read-outs that look alike come from different tables or passages of the source.

Columns and labels:
[1] = Cytotoxicity in HepG2 cells (intracellular ATP, ATPlite, 48 h); type: cell-based, human; conditions: human, HepG2 cells
[2] = tested on: luciferase reaction (BacTiter-Glo); test: Interference assay (inhibition of the BacTiter-Glo luciferase reaction); type: biochemical; parameters: concentration or dose not given beside the values; conditions: ATP interference assay
Method: To discard possible false-positive results, we performed an interference assay in parallel. […] […]. The ATP solution was made by dissolving ATP powder (ATP standard from the ATPlite 1 step assay kit, reference 6016731, Perkin Elmer) in culture medium. The positive control used was the Luciferase Inhibitor I Calbiochem (Merck, 119113) at 100 μM.

[3] = tested on: P. falciparum asexual stages; conditions: TCAMS data, cited from earlier work
[4] = tested on: P. falciparum stage V gametocytes; test: Gametocytocidal ATP bioluminescence assay (single point 5 μM and 1 μM, dose-response); type: cell-based, Plasmodium falciparum; conditions: for Ratio IC50 HepG2/IC50 P. falciparum: IC50 HepG2 divided by IC50 P. falciparum gametocytes
Method: Purified stage IV-V gametocytes were obtained as previously described [10]. Single point ATP bioluminescence assay and dose–response of positive hits was determined in accordance with the previously published protocol [10].

HepG2 cells = test: Cytotoxicity in HepG2 cells (intracellular ATP, ATPlite, 48 h); type: cell-based, human; conditions: HepG2 cells; IC50 per ratio column head; unit inferred
[5] = tested on: P. falciparum stage V gametocytes; test: microbe, parasite or virus in culture; parameters: BacTiter-Glo ATP luminescence viability of purified stage V gametocytes in 384-well plates, per cent inhibition versus DMSO; conditions: Plasmodium falciparum, 48 h, read-out: % Inhibition
[6] = IC50 per ratio column head, unit inferred, read-out: Cytotoxicity in HepG2
[7] = asexual stages, read-out: IC50 asexual
[8] = Plasmodium falciparum, P. falciparum gametocytes, average, read-out: IC50 Pf Gametocytes average, IC50 (µM) average
[9] = sexual stages (gametocytes), dose-response, read-out: IC50 sexual
[10] = P. falciparum asexual stages, read-out: IC50 (µM) Pf asexual stages
[11] = HepG2, 48 h exposure, intracellular ATP, read-out: IC50 (μM) Cytotoxicity HepG2
[12] = Plasmodium falciparum, sexual stages (gametocytes), dose-response, read-out: IC50 sexual
[13] = P. falciparum gametocytes, average, read-out: IC50 Pf Gametocytes average, IC50 (µM) average

| Structure (SMILES) | IC50 at 48 h [1, 6] | % Control luminiscence [2] | IC50 [3, 7] | Ratio IC50 HepG2/IC50 P. falciparum [4] | IC50 [4, 8] | IC50 [4, 9] | IC50 ([1]; IC50 per ratio column head, unit inferred) | IC50 ([4]; Plasmodium falciparum, read-out: IC50 Pf Gametocytes average, IC50 (µM) average) | IC50 [3, 10] | IC50 at 48 h [1, 11] | IC50 [4, 12] | %_Inh ([4]; gametocytes, primary screen at 5 μM (S10 Table, MCSI analogs)) | IC50 (HepG2 cells) | IC50 [4, 13] | inhibition at 5 µM [5] |
| --- | --- | --- | --- | --- | --- | --- | --- | --- | --- | --- | --- | --- | --- | --- | --- |
| COc1ccc(C[C@H](N)C(=O)N[C@H]2[C@@H](O)[C@H](n3cnc4c(N(C)C)ncnc43)O[C@@H]2CO)cc1 [TCMDC-123493] | 2.95 µM | 100% | 0.174 µM | 5 | 0.56 µM | 0.563 µM |  |  |  |  |  |  |  |  |  |
| [O-][s+]1c(Cl)c(-c2ccc(Cl)cc2)c2ccc(Cl)cc21 (stereo not shown) [TCMDC-124011] | 12.8 µM | 100% | 0.993 µM |  | 0.02 µM |  |  |  |  |  |  |  |  |  |  |
| Cl.c1ccc2c(NCCCCCCNc3c4ccccc4nc4ccccc34)c3ccccc3nc2c1 [TCMDC-124285] |  | 100% | 0.753 µM | 28 |  | 0.247 µM | 7000 nM | 0.25 µM |  |  |  |  |  |  |  |
| CCOc1ccc(-c2nonc2NC(=O)c2cccc(Cl)c2)cc1OCC [TCMDC-125200] | > 25 µM | 100% | 0.147 µM |  | 0.84 µM |  |  |  | 0.15 µM |  |  |  |  |  |  |
| CC[C@H]1CN2CCc3cc(OC)c(OC)cc3[C@@H]2C[C@@H]1C[C@H]1NCCc2cc(OC)c(OC)cc21 [TCMDC-125531] | 21 µM | 95% | 0.214 µM |  | 0.35 µM |  |  |  | 0.21 µM | 21 µM | 0.347 µM |  |  |  |  |
| Cc1cccnc1Nc1nc(-c2ccccn2)cs1 [TCMDC-125846] | 3.02 µM | 100% | 0.687 µM | 30 | 0.1 µM |  |  |  |  |  |  |  |  |  |  |
| S=C(NN=Cc1ccccn1)Nc1ccc2c(c1)OCCO2 [TCMDC-132009] | 3.28 µM | 100% | 1.05 µM | 4 | 0.83 µM |  |  |  |  |  |  |  |  |  |  |
| Cc1cccc2nc(-c3cccc(-c4cccc(CNCCN5CCNCC5)c4)c3)[nH]c12 [TCMDC-132873] | 7.76 µM | 100% | 0.97 µM | 16 | 0.5 µM | 0.497 µM |  |  |  |  |  |  |  |  |  |
| COc1cc(-c2cc(-c3ccc(S(C)(=O)=O)cc3)cnc2N)ccc1O [TCMDC-133343] | > 25 µM | 100% | 0.101 µM |  | 1.24 µM |  |  |  | 0.1 µM |  | 1.24 µM |  |  |  |  |
| NC1CCN(Cc2ccc(-c3ccc(-c4nc5cc(F)ccc5[nH]4)cc3)cc2)C1 (stereo not shown) [TCMDC-133872] | 7.25 µM | 100% | 0.184 µM | 9 | 0.83 µM |  |  |  | 0.18 µM | 7 µM | 0.827 µM |  |  |  |  |
| Cc1cccc2nc(-c3ccc(-c4cccc(CN5CCC(CCN6CCCCC6)CC5)c4)s3)[nH]c12.O=C(O)C(F)(F)F [TCMDC-133923] | 3.87 µM | 100% | 0.14 µM | 8 | 0.46 µM |  |  |  |  |  | 0.463 µM | 107.301% |  |  |  |
| CC(C)CNCc1cccc(-c2ccc(CN(CCCN3CCN(C)CC3)C(=O)/C=C/c3ccccc3)cc2)c1 [TCMDC-140545] |  | 100% | 0.857 µM | 11 |  |  |  |  |  |  |  |  | 6650 nM | 0.63 µM |  |
| CC(C)CNCc1ccc(-c2ccc(CN(CCCN3CCN(C)CC3)C(=O)/C=C/c3ccccc3)cc2)cc1 [TCMDC-140546] |  | 100% | 0.917 µM | 7 |  | 1 µM |  |  |  |  |  |  | 6990 nM | 1 µM |  |
| CC(C)CNCc1ccc(-c2cccc(CN(CCN(C)C)C(=O)CCC3CCCC3)c2)cc1 [TCMDC-140553] |  | 100% | 0.809 µM | 10 |  |  |  |  |  |  |  |  | 5500 nM | 0.54 µM |  |
| CN1CCN(CCCN(Cc2cccc(-c3cccc(CNC4CCCC4)c3)c2)C(=O)CCC2CCCC2)CC1 [TCMDC-140555] |  | 100% | 0.675 µM | 9 |  | 0.807 µM |  |  |  |  |  |  | 7500 nM | 0.81 µM |  |
| CC(C)CNCc1ccc(-c2ccc(CN(CCCN3CCN(C)CC3)C(=O)CCC3CCCC3)cc2)cc1 [TCMDC-140559] |  | 100% | 1.05 µM | 10 |  |  |  |  |  |  |  |  | 5390 nM | 0.54 µM |  |
| CN1CCN(CCCN(Cc2ccc(-c3ccc(CNC4CCCC4)cc3)cc2)C(=O)CCC2CCCC2)CC1 [TCMDC-140560] |  | 100% | 0.886 µM | 11 |  | 0.535 µM |  |  |  |  |  |  | 6000 nM | 0.53 µM |  |
| CC(C)CNCc1cccc(-c2cccc(CN(CCCN3CCN(C)CC3)C(=O)NC3CCCCC3)c2)c1 [TCMDC-140633] |  | 96% | 0.761 µM | 9 |  | 1.78 µM |  |  |  |  |  |  | 16800 nM | 1.78 µM |  |
| CC(C)CC(=O)N(Cc1ccc(-c2ccc(CNC3Cc4ccccc4C3)cc2)cc1)C1CCNCC1 [TCMDC-141449] |  | 100% | 1.17 µM | 10 |  | 0.633 µM |  |  |  |  |  |  | 6200 nM | 0.63 µM |  |
| O=C(COc1ccccc1)N(Cc1ccc(-c2ccc(CNC3Cc4ccccc4C3)cc2)cc1)C1CCNCC1 [TCMDC-141450] |  | 100% | 1.01 µM | 8 |  | 0.987 µM |  |  |  |  |  |  | 7800 nM | 0.99 µM |  |
| CN1CCC(C(=O)N(Cc2ccc(-c3ccc(CNCCc4ccccc4)cn3)cc2)C2CCN(Cc3ccccc3)CC2)CC1 [TCMDC-141552] |  | 95% | 0.787 µM | 10 |  | 0.897 µM |  |  |  |  |  |  | 9270 nM | 0.9 µM |  |
| CCN(CC)CCN(Cc1ccc(-c2ccc(C(F)(F)F)cc2)cc1)C(=O)c1ccc(-c2ccc(NC(=O)OC)cc2C)cc1 [TCMDC-141558] |  | 100% | 0.929 µM | 1.46 |  | 3.71 µM |  |  |  |  |  |  | 5400 nM | 3.71 µM |  |
| Cc1cc(F)ccc1-c1nc(NCC(O)CNCCc2ccccc2)nc2c1ccc(=O)n2-c1c(F)cccc1F (stereo not shown) [TCMDC-141784] |  | 100% | 0.539 µM | 37 |  |  |  |  |  |  |  |  | 8470 nM | 0.23 µM |  |
| O=C(Nc1cccc(Oc2ccccc2)c1)N[C@H]1CCN(Cc2ccc(OCCCN3CCCCC3)cc2)C1 [TCMDC-141785] |  | 100% | 0.724 µM | 3 |  |  |  |  |  |  |  |  | 3520 nM | 1.13 µM |  |
| COc1ccc2c(NN=Cc3ccc(OC)c4ccccc34)cc(C)nc2c1 [TCMDC-142218] |  | 97% | 0.599 µM | 10 |  | 0.773 µM |  |  |  |  |  |  | 7860 nM | 0.77 µM | 97.5% |
